In patent US6486097B2, “Herbicidal fatty acid and maleic hydrazide salt compositions” (W. Neudorff GmbH KG, priority 2000, dated 2002):

Assays:
dandelions [1] = assay: Potted dandelion test of NH4C9 and NH4C11:1 with and without MH (Example 7); format: in vivo; settings: for Number of Dead Plants of 15 Total: 0.5 L/m^2, sprayed twice 8 days apart, 8 days after second spray; for Contact herbicidal activity (in words): without NH4MH, treated plants were able to re-grow
Source text: Five-month-old potted dandelions were sprayed with solutions of ammonium fatty acid soaps in combination with NH4MH. The solutions contained 3.9% ammonium fatty acid soaps and 1.15% NH4MH. The plants were sprayed at a rate of 0.5 L/m^2. The plants were sprayed twice, with 8 days between sprays. Final observations were taken 8 days after the second spray. Fifteen plants were used per treatment.

dandelions [2] = assay: Field dandelion test (Example 2); format: in vivo; settings: 0.2 L/m^2, re-sprayed after 7 days, 38 days after first spray
Protocol: This test compared the herbicidal activity of NH4C9, NH4MH, and NH4C9+NH4MH on dandelion mortality. This test also investigated the effect of adding isopropyl alcohol (IPA) to NH4C9+NH4MH. Nine dandelions were grown in 0.5 m^2 areas of soil in the field. At the time of spraying the dandelions were very large, with leaves longer than 25 cm. Every treatment was sprayed onto 4 areas of soil. Every 0.5 m^2 plot received 100 ml of solution (0.2 L/m^2). All of the areas were re-sprayed 7 days after the first spray. The number of dead plants was assessed 38 days after the first spray.
Round Up (35.6% glyphosate N-(phosphonomethyl) glycine) produced by Monsanto, Killex (9.5% 2,4-D (2,4-dichlorophenoxy) acetic acid, Mecoprop (5% 2-(4-chloro-2-methylphenoxy)) propanoic acid and 0.9% Dicamba (3,6-dichloro-o-anisic acid) by Green Cross were diluted as per label instructions and included as standards.

dandelions [3] = assay: Dandelion test of NH4C9 with a range of NH4MH concentrations (Example 3); format: in vivo; settings: sprayed to wetness, 36 days after spraying
Protocol: This test examined NH4C9 combined with a range of NH4MH concentrations. All of the NH4C9 treatments contained 3.9% NH4C9. All of the solutions were sprayed to wetness onto 10 dandelions. The number of dead plants was assessed 36 days after spraying.

dandelions [4] = assay: Greenhouse dandelion test with a gum (Example 4), mortality; format: in vivo; settings: pH 7.38
Source text: (§1) This test studied the effect of thickening NH4C9+NH4MH solutions on plant mortality. The solutions were thickened by adding 0.5 g of the xanthan gum Rhodopol 23 suspended in 3.0 g propylene glycol to 96.5 g solution. The pH values of the test solutions were adjusted to 7.38.

[5] = Viscosity of test solutions (Example 4); format: physicochemical; settings: pH 7.38
Source text: as §1

dandelions [6] = assay: Greenhouse dandelion test of TopGun with and without MH (Example 5); format: in vivo; settings: NH4MH 1.15%; sprayed to run-off; 15 days after spraying
Protocol: TopGun is a proprietary emulsified formulation containing 18% C9 (nonanoic) acid present as free acid. TopGun was diluted to 1.8% C9 acid. Each solution was sprayed to run-off onto ten 20 cm diameter dandelions grown in the greenhouse. The number of dead plants was assessed 15 days after spraying.

dandelions [7] = assay: Field dandelion test with added alcohol and gum (Example 6); format: in vivo; settings: 0.2 L/m^2, re-sprayed after 14 days, 10 days after second spray
Protocol: This test compared the herbicidal activity of NH4C9, NH4MH and (NH4C9+NH4MH) with added alcohol and gums on dandelion mortality. The gum Kelzan S (Merck & Co., Inc.) at 0.08% was used as a thickener.
This test also investigated the effect of adding NH4MH to emulsified C9 acid. The emulsified C9 acid solution was made by adding 3.5 g of C9 acid with 1.0 g of Tween 80 and 95.5 g water (no ammonium hydroxide was added). For the C9 acid+NH4MH solution, 13 g of water was replaced by 13 g of the 6.9% NH4MH stock solution.
Every solution was sprayed onto 16 field-grown, medium-sized dandelions. All of the dandelions had leaves longer than 10 cm. The dandelions were sprayed at a rate of 0.2 L/m^2. All plants were re-sprayed 14 days after the first spray. The number of dead plants was assessed 10 days after the second spray.

[8] = same number of moles of NH4MH and MH
Protocol: The compositions of the solutions are listed below. Note that slightly more NH4MH was added than MH acid, as NH4MH has a higher molecular weight. The same number of moles of NH4MH and MH were used.
Viscosity is measured in centipoise (milli pascal seconds). Water has a viscosity of 1.0.

[9] = C9 acid 3.5% emulsified with Tween 80

For `C=CCCCCCCCCC(=O)O.N` [NH4C11:1], the “Number of Dead Plants of 15 Total” value (dandelions [1]; NH4C11:1 3.9%) was 2 and the “Contact herbicidal activity (in words)” value (dandelions [1]) was “good contact herbicides”.
For `N.O=c1ccc(O)n[nH]1` [NH4MH, ammonium salt of maleic hydrazide], the “Dead Plants (#/36)” value (dandelions [2]; NH4MH 1.15%) was 1 #/36, the “Dead Plants (%)” value (dandelions [2]; NH4MH 1.15%) was 3% and the “Mortality (#/10 plants)” value (dandelions [3]; NH4MH 1.15%) was 0 #/10 plants. The “Mortality (#/10)” value (dandelions [4]; NH4MH 1.15%) was 0 #/10, the “Viscosity (Cps)” value ([5]; NH4MH 1.15%) was 1 Cps and the “Number of Dead Plants (#/10 Plants)” value (dandelions [6]) was 0 #/10 Plants. The “Dead Plants (#/16)” value (dandelions [7]; NH4MH 0.9% only) was 0 #/16, the “Dead Plants (%)” value (dandelions [7]; NH4MH 0.9% only) was 0% and the “Solubility in NH4C9 concentrate compared with MH” value [8] was “superior solubility”.
With `O=c1ccc(=O)[nH][nH]1` [MH, 1,2-dihydro-3,6-pyridazine-dione] the “Number of Dead Plants of 15 Total” value (dandelions [1]; MH only 1%) was 0.
With `CCCCCCCCC(=O)O.N` [NH4C9, ammonium salt of nonanoic acid] the “Dead Plants (#/36)” value (dandelions [2]; NH4C9 3.9%) was 0 #/36, the “Dead Plants (%)” value (dandelions [2]; NH4C9 3.9%) was 0% and the “Mortality (#/10 plants)” value (dandelions [3]; NH4C9 3.9%) was 0 #/10 plants. For the same compound, the “Mortality (#/10)” value (dandelions [4]; NH4C9 2.2%) was 1 #/10, the “Viscosity (Cps)” value ([5]; NH4C9 2.2%) was 1 Cps and the “Dead Plants (#/16)” value (dandelions [7]; NH4C9 3.9%) was 2 #/16. The “Dead Plants (%)” value (dandelions [7]; NH4C9 3.9%) was 13%, the “Number of Dead Plants of 15 Total” value (dandelions [1]; NH4C9 3.9%) was 1 and the “Contact herbicidal activity (in words)” value (dandelions [1]) was “good contact herbicides”.
In the case of `CCCCCCCCC(=O)O` [C9 acid, Nonanoic acid], the “Dead Plants (#/16)” value (dandelions [7]; [9]) is reported as 3 #/16 and the “Dead Plants (%)” value (dandelions [7]; [9]) is reported as 19%.
